Assay results taken from US8889883B2, “BODIPY structure fluorescence dye for neural stem cell probe” (National University of Singapore, priority 2010, dated 2014).

System: E14.5 fetal mouse brain cells
Assay: Neurosphere assay of FACS-sorted fetal mouse brain cells
Assay type: cell-based
Conditions: CDr3, SSEA-1, Aldefluor, CD133 sorted cells
Protocol: Next, we were interested to test whether CDr3 can be used for the isolation of NSC from the heterogeneous populations of cells. According to the protocol described by Bibel et al.^7, we induced differentiation of E14 to generate FABP7-positive radial glial cells. The embryoid bodies generated from E14 in the absence of leukemia inhibitory factor were treated with retinoic acid for 2 days until dissociation into single cell suspension. The cells were stained with CDr3 and the CDr3bright and CDr3dim cells were collected separately by FACS. Each cell population was stained with FABP7 antibody and analyzed by flow cytometry. […] For the NSC isolation from the brain tissue, we incubated the E14.5 fetal mouse brain primary cells with CDr3, and the CDr3^bright and CDr3^dim cells were collected separately by FACS for gene expression analysis by real time RT-PCR and neurosphere assay. The expression levels of FABP7, Hes1, Musashi, Nestin and Pax6 in CDr3^bright cells were more than 3-fold higher than in CDr3^dim cells, while the differences of Hes5, Sox2 and Bmi1 expression levels were less than 2-fold (FIG. 5). […]
E14.5 fetal mouse brains were trypsinized in 0.25% trypsin with 1 mM EDTA solution (Invitrogen) for 30 mins at 37° C. before neutralization with FBS. […] The number and size of neurospheres generated from each group were measured after 6 days culture. […]

For `Cc1cc(C)n2c1C=C1C=CC(CCC(=O)NCC=O)=[N+]1[B-]2(F)F` [Aldefluor, BODIPY-aminoacetaldehyde], the “sizes of neurospheres from sorted cells” value was “all similar”.
